ChEMBL document CHEMBL1201862, “PubChem BioAssay data set” (2004)
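Assay format: 96-well plates, 48-hour exposure. GI50 marks 50% less growth.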 Active and inactive are the calls of the source. No stated cut-off is given here; in the data, active = GI50 up to about 1.1 µM and inactive = higher.

Key:
Test in all cases: NCI anticancer screen, dose series, 48 h
A549 = tested on: A549
COLO 205 = tested on: COLO 205
DLD-1 = tested on: DLD-1
DMS-114 = tested on: DMS-114
HOP-62 = tested on: HOP-62
KM-20L2 = tested on: KM-20L2
M19-MEL = tested on: M19-MEL
MOLT-4 = tested on: MOLT-4
Malme-3M = tested on: Malme-3M
NCI-H226 = tested on: NCI-H226
NCI-H460 = tested on: NCI-H460
NCI/ADR-RES = tested on: NCI/ADR-RES
SF-539 = tested on: SF-539
SK-MEL-2 = tested on: SK-MEL-2
SK-MEL-5 = tested on: SK-MEL-5
SNB-19 = tested on: SNB-19
SW-620 = tested on: SW-620
UACC-257 = tested on: UACC-257
UACC-62 = tested on: UACC-62

Measured: GI50

O=C(N[C@@H](c1ccccc1)[C@@H](O)C(=O)OCc1ccc2c(c1)OCO2)c1ccccc1
inactive: A549 > 100 µM | COLO 205 > 100 µM | DLD-1 > 100 µM | DMS-114 > 100 µM | HOP-62 > 100 µM | KM-20L2 > 100 µM | M19-MEL > 100 µM | MOLT-4 > 91.8 µM | Malme-3M > 100 µM | NCI-H226 > 84.1 µM | NCI-H460 > 100 µM | NCI/ADR-RES > 42.1 µM | SF-539 > 100 µM | SK-MEL-2 > 100 µM | SK-MEL-5 > 100 µM | SNB-19 > 100 µM | SW-620 > 100 µM | UACC-257 > 100 µM | UACC-62 > 80.7 µM

CCOC(=O)/C=C/c1c[nH]c(=O)[nH]c1=O
inactive: A549 > 75 µM | COLO 205 > 75 µM | DLD-1 > 75 µM | DMS-114 > 75 µM | HOP-62 > 49.1 µM | KM-20L2 > 75 µM | M19-MEL > 75 µM | MOLT-4 > 33.4 µM | Malme-3M > 75 µM | NCI-H226 > 75 µM | NCI-H460 > 75 µM | NCI/ADR-RES > 75 µM | SF-539 > 75 µM | SK-MEL-2 > 75 µM | SK-MEL-5 > 75 µM | SNB-19 > 75 µM | SW-620 > 47.3 µM | UACC-257 > 75 µM | UACC-62 > 75 µM
